# Assay results from US10865334B2, “Process for extracting materials from biological material” (Universiteit Leiden, priority 2010, dated 2020).
# How the values were obtained:
# [1] = solubility of flavonoids in naturally occurring deep eutectic solvents; assay type: physicochemical
# Protocol: First the solubility of natural products, which are not soluble in water, was evaluated in a few selected natural deep eutectic solvents. Several flavonoids were chosen as the natural water-insoluble products, because they are one of the most abundant water-insoluble plant secondary metabolites. Up to now more than 500 flavonoids have been known. Most of these flavonoids occur in their glycosides forms (bounded to a sugar molecule) in plants. In spite of large abundance of flavonoids in plants, both the glycoside and the aglycone (non-sugar) part are not soluble in water. […] The structure of these flavonoids are shown below.
# [2] = solubility data in some typical Des at 40° C.; assay type: physicochemical; details: for solubility in GCH / solubility in H2O / solubility in LGH / solubility in PdCH / solubility in SoCH: n = 3
# [3] = organic solvent or mixture, Solubility in Fructose + Choline chloride
# [4] = organic solvent or mixture, Solubility in Glucose + Choline chloride
# [5] = deep eutectic solvent GCH, organic solvent or mixture, solvent GCH (Glc:Ch:H2O 1:2.5:2.5), n = 3, read-out: solubility in GCH
# [6] = deep eutectic solvent LGH, organic solvent or mixture, solvent LGH (Lac:Glc:H2O 5:1:2), n = 3, read-out: solubility in LGH
# [7] = deep eutectic solvent PdCH, organic solvent or mixture, solvent PdCH (1,2Prop:Ch:H20 1:1:1), n = 3, read-out: solubility in PdCH
# [8] = deep eutectic solvent SoCH, organic solvent or mixture, solvent SoCH (So:Ch:H2O), n = 3, read-out: solubility in SoCH
# [9] = solvent GCH (Glc:Ch:H2O 1:2.5:2.5)
# [10] = solvent LGH (Lac:Glc:H2O 5:1:2)
# [11] = solvent PdCH (1,2Prop:Ch:H20 1:1:1)
SMILES,"solubility [1, 3] [mg/mL]","solubility [1, 4] [mg/mL]","solubility ([1]; water, Solubility in Water) [mg/mL]","solubility [2, 5] [mg/mL]","solubility [2, 6] [mg/mL]","solubility [2, 7] [mg/mL]","solubility [2, 8] [mg/mL]","solubility in GCH [2, 9] [mg/mL]",solubility in H2O ([2]; solvent H2O) [mg/mL],"solubility in LGH [2, 10] [mg/mL]","solubility in PdCH [2, 11] [mg/mL]",solubility in SoCH ([2]; solvent SoCH (So:Ch:H2O)) [mg/mL],other results
O=c1c(O)c(-c2ccc(O)c(O)c2)oc2cc(O)cc(O)c12 [quercetin],23.3 ± 2.54,21.6 ± 0.94,0.3 ± 0.002,20.1 ± 0.41,1.72 ± 0.09,205 ± 7.31,146 ± 2.82,–,–,–,–,–,Solubility in Sucrose + Choline chloride [1]: 15.63 ± 0.57 mg/mL
CC(=O)O[C@H]1C(=O)[C@@]2(C)[C@H]([C@H](OC(=O)c3ccccc3)[C@]3(O)C[C@H](OC(=O)[C@H](O)[C@@H](NC(=O)c4ccccc4)c4ccccc4)C(C)=C1C3(C)C)[C@]1(OC(C)=O)CO[C@@H]1C[C@@H]2O [paclitaxel],–,–,–,–,5.39 ± 0.55,11.7 ± 0.68,0.59 ± 0.01,0.83 ± 0.16,–,–,–,–,–
"C[C@@H]1O[C@@H](OC[C@H]2O[C@@H](Oc3c(-c4ccc(O)c(O)c4)oc4cc(O)cc(O)c4c3=O)[C@H](O)[C@@H](O)[C@@H]2O)[C@H](O)[C@H](O)[C@H]1O [rutin, quercetin-3-O-rhanmoglucoside]",10.9 ± 1.7,4.78 ± 0.84,< 0.001,122 ± 1.45,8.14 ± 0.79,353 ± 31.2,149 ± 2.61,–,–,–,–,–,"solubility ([1]; organic solvent or mixture, Solubility in Sucrose + Choline chloride): 2.41 ± 0.18 mg/mL; solubility ([2]; water, solvent H2O, n = 3, read-out: solubility in H2O): 0.028 mg/mL"
O=C(/C=C/c1ccc(O)cc1)C1=C(O)[C@](O)([C@@H]2O[C@H](CO)[C@@H](O)[C@H](O)[C@H]2O)C(O)=C(/C=C2/C(=O)C(C(=O)/C=C/c3ccc(O)cc3)=C(O)[C@@](O)([C@@H]3O[C@H](CO)[C@@H](O)[C@H](O)[C@H]3O)C2=O)C1=O [carthamin],–,–,–,–,–,–,–,27.20 ± 0.39,1.43 ± 0.01,1.24 ± 0.21,22.47 ± 1.00,14.05 ± 0.66,–
CC1C(=O)OC2C(O)C34C5CC(C(C)(C)C)C36C(OC(=O)C6O)OC4(C(=O)O5)C12O (centres unmarked) [ginkgolide B],–,–,–,–,–,–,–,5.85 ± 0.42,0.15 ± 0.00,1.93 ± 0.31,78.42 ± 14.45,1.70 ± 0.01,–
"C[C@@H]1O[C@@H](Oc2c(-c3ccc(O)c(O)c3)oc3cc(O)cc(O)c3c2=O)[C@H](O)[C@H](O)[C@H]1O [Quercitrin, quercetin-3-O-rhamnoside]",–,–,–,–,–,–,–,–,–,–,–,–,"solubility ([1]; organic solvent or mixture, deep eutectic solvent Fructose + Choline chloride, read-out: Solubility in Fructose + Choline chloride): 11.2 ± 0.64 mg/mL; solubility ([1]; organic solvent or mixture, deep eutectic solvent Glucose + Choline chloride, read-out: Solubility in Glucose + Choline chloride): 7.81 ± 0.2 mg/mL; solubility ([1]; organic solvent or mixture, deep eutectic solvent Sucrose + Choline chloride, read-out: Solubility in Sucrose + Choline chloride): 12.7 ± 0.38 mg/mL; solubility ([1]; water, read-out: Solubility in Water): 0.159 ± 0.001 mg/mL"
